The test system of data set [1] is patients with schizophrenia. Put plainly: CATIE trial drug response (>20% decrease in PANSS Total Score) by HPCAL1/SV2C genotype. The note with it: for Response frequency: CATIE Phase 1; for OR vs. Low / OR vs. baseline: response; for OR vs. Low: vs low scoring genotype(s); for OR vs. baseline: vs sample not segmented by genotype. The class given is in vivo, human. The procedure:
(§1) The Clinical Antipsychotic Trials of Intervention Effectiveness (CATIE), a large federally funded clinical trial designed to assess the efficacy of antipsychotics in a real world setting, is a valuable resource for determining the role of genes in drug response (Stroup et al., Schizophr. Bull. 29:15-31 (2003); Lieberman et al., N. Engl. J. […] As part of the CATIE trial SNP genotyping was performed for roughly half of the trial participants (Sullivan et al., Mol. Psychiatry 13:570-584 (2008)). […] The design of the CATIE study has been described in detail by others (Stroup et al., Schizophr. Bull. 29:15-31 (2003); Lieberman et al., N. Engl. J. […] A total of 738 subjects consented to provide DNA for genetic study. […] Genotype and phenotype data for the CATIE trial were made available to qualified researchers through The NIMH Center for Collaborative Genetic Studies on Mental Disorders. For reduction to practice, we evaluated data for 417 patients with schizophrenia self reported as having exclusively European ancestry. […] Golden Helix, Bozeman, Mont.). To generate a P value, HelixTree calculates analysis of deviance (a likelihood ratio statistic) that compares the observed contingency table vs. an expected contingency table created with all the possible variations of the genetic model. […] The standard FDA registration trial definition of response of >20% decrease in Positive and Negative Syndrome Scale (PANSS Total Score) was used to assign subjects to a response category. […] Bull. 29:73-80 (2003)). […] The tables report odds ratios relative to the baseline values (sample not segmented by genotype) and relative to values for the low scoring, mutually exclusive genotype(s).

Data set [2] deals with patients with schizophrenia. The experiment in a line: CATIE trial side effects (discontinued for safety concerns, COMPEFF score 5) by HPCAL1/SV2C genotype. The class given is in vivo, human. The note with it: for OR vs. Low / OR vs. baseline: side effects; for OR vs. Low: vs low scoring genotype(s); for OR vs. baseline: vs sample not segmented by genotype. The procedure: as §1

Where [3] appears, read: HPCAL1 rs11679891 genotype A/C, C/C (C).
The mark [4] stands for this setting: HPCAL1 rs13033617 genotype C/C (C).
Where [5] appears, read: SV2C rs6453205 genotype C/C (C).
[6] abbreviates: HPCAL1 rs7571627 genotype T/T (T).
Where [7] appears, read: SV2C rs12522597 genotype G/G, A/G (G).
The mark [8] stands for this setting: HPCAL1 rs11679891 genotype C/C (C).
[9] abbreviates: SV2C rs4610441 genotype C/C (C).
Setting [10] is: SV2C rs10064352 genotype T/T (T).
Where [11] appears, read: SV2C rs10474464 genotype C/C (C).
The mark [12] stands for this setting: SV2C rs12152728 genotype C/C (C).

Some results are limits rather than exact numbers.

`Cc1nc2n(c(=O)c1CCN1CCC(c3noc4cc(F)ccc34)CC1)CCCC2` [risperidone]: in data set [1] (SV2C rs4704297 genotype C/C, C/G (C)), the Response frequency is on record as 0.45.

As to `OCCN1CCN(CCCN2c3ccccc3Sc3ccc(Cl)cc32)CC1` [perphenazine], in data set [2] (setting [3]), the “Frequency Study ending side effects” value was found to be 0.19, the “OR vs. Low” value is listed as >10 and the OR vs. baseline is on record as 1.44. For the same compound, in data set [2] (setting [4]), the “Frequency Study ending side effects” value worked out at 0.27, the “OR vs. Low” value was determined as 3.74 and the OR vs. baseline worked out at 2.27. In data set [1] (setting [5]), the Response frequency was 0.7, the “OR vs. Low” value is on record as 3.36 and the OR vs. baseline came to 2.43.

`O=C1Cc2cc(CCN3CCN(c4nsc5ccccc45)CC3)c(Cl)cc2N1` [ziprasidone]: in data set [2] (setting [6]), the “Frequency Study ending side effects” value is recorded as 0.33, the “OR vs. Low” value was 4.98 and the OR vs. baseline was 1.56. In addition, in data set [2] (SV2C rs246812 genotype A/A (A)), the “Frequency Study ending side effects” value was determined as 0.5, the “OR vs. Low” value was 6.14 and the OR vs. baseline is reported as 3.17. Also, in data set [1] (setting [7]), the Response frequency came to 0.55, the “OR vs. Low” value amounted to 9.89 and the OR vs. baseline is 1.49.

As for `OCCOCCN1CCN(C2=Nc3ccccc3Sc3ccccc32)CC1` [quetiapine], the Response frequency in data set [1] (setting [8]) was 0.6; in data set [1] (setting [9]), 0.6; in data set [1] (setting [10]), 0.6; in data set [1] (setting [11]), 0.6; in data set [1] (setting [12]) it was 0.5. Further, the OR vs. baseline in data set [1] (setting [8]) came to 3.05; in data set [1] (setting [9]), 3.05; in data set [1] (setting [10]), 3.05; in data set [1] (setting [11]), 3.05; in data set [1] (setting [12]), 2.03. The entries for the “OR vs. Low” value in data set [1] (setting [10]) and in data set [1] (setting [12]) were 3.67 and 2.70, respectively.

The values above are taken from patent US8460868B2, “Genetic markers for schizophrenia and bipolar disorder” (priority 2007, dated 2013).
